Measured values from patent US7741361B2, “Glucocorticoid mimetics, methods of making them, pharmaceutical compositions, and uses thereof” (Boehringer Ingelheim Pharmaceuticals, Inc., priority 2004, dated 2010).

Tested on: glucocorticoid receptor
Assay: Glucocorticoid receptor cell assays (agonist activity in one or more of the above assays)
Assay type: cell-based
Details: assay not specified
Procedure: B. Glucocorticoid Receptor Cell Assays
1. Induction of Aromatase in Fibroblasts (Cell Assay for Transactivation)
Dexamethasone, a synthetic ligand to the glucocorticoid receptor (GR), induces expression of aromatase in human foreskin fibroblast cells. The activity of aromatase is measured by the conversion of testosterone to estradiol in culture media.
Human foreskin fibroblast cells (ATCC Cat. No. CRL-2429, designation CCD112SK) are plated on 96 well plates at 50,000 cells per well 5 days before use, in Iscove's Modified Dulbecco's Media (GibcoBRL Life Technologies Cat No. 12440-053) supplemented with 10% charcoal filtered FBS (Clonetech Cat No. SH30068) and Gentamycin (GibcoBRL Life Technologies Cat. No. 15710-064). On the day of the experiment, the media in the wells is replaced with fresh media. Cells are treated with test compounds to final concentrations of 10^−5 M to 10^−8 M, and testosterone to a final concentration of 300 ng/mL. Each well has a total volume of 100 μL. Samples are made in duplicates. Control wells include: (a) wells that receive testosterone only, and (b) wells that receive testosterone plus 2 μM of dexamethasone to provide maximum induction of aromatase. Plates are incubated at 37° C. overnight (15 to 18 hours), and supernatants are harvested at the end of incubation. Estradiol in the supernatant is measured using ELISA kits for estradiol (made by ALPCO, obtained from American Laboratory Products Cat. No. 020-DR-2693) according to the manufacture's instruction. The amount of estradiol is inversely proportional to the ELISA signals in each well. The extent of aromatase induction by test compounds is expressed as a relative percentage to dexamethasone. EC50 values of test compounds are derived by non-linear curve fitting.
2. Inhibition of IL-6 Production in Fibroblasts (Cell Assay for Transrepression)
Human foreskin fibroblast cells produce IL-6 in response to stimulation by pro-inflammatory cytokine IL-1.
Human foreskin fibroblast cells (ATCC Cat. No. CRL-2429) are plated on 96 well plates at 5,000 cells per well the day before use, in Iscove's Modified Dulbecco's Media (GibcoBRL Life Technologies Cat. No. 12440-053) supplemented with 10% charcoal filtered FBS (Clonetech Cat. No. SH30068) and Gentamycin (GibcoBRL Life Technologies Cat. No. 15710-064). On the next day, media in the wells is replaced with fresh media. […] IL-6 levels in the supernatants are determined by the ELISA kits for IL-6 (MedSystems Diagnostics GmbH, Vienna, Austria, Cat. No. BMS213TEN) according to manufacture's instructions. […]
Evaluation of agonist or antagonist activity of compounds binding to the glucocorticoid receptor may be determined by any of the assays. […]

Row | SMILES | activity as an agonist of the glucocorticoid receptor function
1 | Cc1cc(C)c(S(=O)(=O)NC(Cc2c[nH]c3ccccc23)C(F)(F)F)c(C)c1 (stereo not shown) [2,4,6-Trimethyl-N-[2,2,2-trifluoro-1-(1H-indol-3-ylmethyl)ethyl]benzenesulfonamide] | activity as an agonist
2 | Cc1cc(C)c(S(=O)(=O)NC(Cc2c[nH]c3ccc(C)cc23)C(F)(F)F)c(C)c1 (stereo not shown) [2,4,6-Trimethyl-N-[2,2,2-trifluoro-1-(5-methyl-1H-indol-3-ylmethyl)ethyl]benzenesulfonamide] | activity as an agonist
3 | Nc1cc(Cl)cc(Cl)c1S(=O)(=O)NC(Cc1c[nH]c2ccccc12)C(F)(F)F (stereo not shown) [2-Amino-4,6-dichloro-N-[2,2,2-trifluoro-1-(1H-indol-3-ylmethyl)ethyl]benzenesulfonamide] | activity as an agonist
4 | Cc1ccc2[nH]cc(CC(NS(=O)(=O)c3c(N)cc(Cl)cc3Cl)C(F)(F)F)c2c1 (stereo not shown) [2-Amino-4,6-dichloro-N-[2,2,2-trifluoro-1-(5-methyl-1H-indol-3-ylmethyl)ethyl]benzenesulfonamide] | activity as an agonist
